# Data from patent US11173162B2, “Bicyclic heterocycles as FGFR4 inhibitors” (Incyte Corporation, priority 2015, dated 2021).
# Experiments:
# FGFR3 enzyme = test: FGFR Enzymatic Assay (FRET peptide phosphorylation), FGFR3; format: biochemical; settings: IC50 ratio showing FGFR3 selectivity; Table 2A, pre-incubated for 4 hours
# Description: (§1) The inhibitor potency of the exemplified compounds was measured in an enzyme assay that measures peptide phosphorylation using FRET measurements to detect product formation. Inhibitors were serially diluted in DMSO and a volume of 0.5 μL was transferred to the wells of a 384-well plate.
# (§2) GraphPad prism3 was used to analyze the data.
# FGFR4 = FGFR4 (Homo sapiens (Human), UniProt P22455); test: FGFR Enzymatic Assay (FRET peptide phosphorylation), FGFR4; format: biochemical
# Description: as §1
# The enzymes were purchased from Millipore or Invitrogen.
# as §2
# [1] = IC50 ratio showing FGFR4 selectivity, Table 2, pre-incubated for 4 hours
# [2] = ratio of IC50 data showing FGFR4 selectivity, Table 4, pre-incubated for 5 to 10 minutes
# FGFR4, sequence (P22455 22-802): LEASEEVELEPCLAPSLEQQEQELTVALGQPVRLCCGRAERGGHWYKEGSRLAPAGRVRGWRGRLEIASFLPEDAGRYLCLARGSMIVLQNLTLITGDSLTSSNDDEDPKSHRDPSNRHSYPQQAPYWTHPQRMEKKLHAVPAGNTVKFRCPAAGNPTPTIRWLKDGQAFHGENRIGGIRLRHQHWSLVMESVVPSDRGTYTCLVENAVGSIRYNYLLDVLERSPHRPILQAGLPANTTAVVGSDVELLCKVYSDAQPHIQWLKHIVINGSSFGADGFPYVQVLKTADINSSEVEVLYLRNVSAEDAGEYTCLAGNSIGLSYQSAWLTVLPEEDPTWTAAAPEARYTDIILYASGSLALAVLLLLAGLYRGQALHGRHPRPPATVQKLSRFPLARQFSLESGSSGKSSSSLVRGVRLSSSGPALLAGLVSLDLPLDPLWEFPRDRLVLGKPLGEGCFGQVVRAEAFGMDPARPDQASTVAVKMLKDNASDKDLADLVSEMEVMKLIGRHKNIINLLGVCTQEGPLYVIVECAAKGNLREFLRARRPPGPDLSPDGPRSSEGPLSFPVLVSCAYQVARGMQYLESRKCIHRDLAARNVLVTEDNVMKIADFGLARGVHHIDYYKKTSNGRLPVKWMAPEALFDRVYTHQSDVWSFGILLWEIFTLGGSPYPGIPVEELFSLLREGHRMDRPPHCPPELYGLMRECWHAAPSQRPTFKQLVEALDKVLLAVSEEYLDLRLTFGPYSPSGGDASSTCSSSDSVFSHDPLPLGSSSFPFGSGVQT
Compound,FGFR1/FGFR3 (FGFR3 enzyme),FGFR1/FGFR4 (FGFR4; [1]),FGFR2/FGFR4 (FGFR4; [1]),FGFR3/FGFR4 (FGFR4; [1]),FGFR1/FGFR4 (FGFR4; [2]),FGFR2/FGFR4 (FGFR4; [2]),FGFR3/FGFR4 (FGFR4; [2])
"COc1cc(OC)c(F)c(N2Cc3cnc(-c4cncc(S(=O)(=O)N5CCOCC5)c4)cc3C3(CC3)C2=O)c1F [Example 14, 2′-(2,6-difluoro-3,5-dimethoxyphenyl)-6′-(5-(morpholinosulfonyl)pyridin-3-yl)-1′H-spiro[cyclopropane-1,4′-[2,7]naphthyridin]-3′(2′H)-one]",>5,>50,>10,>1,>25,>5,>5
"COc1cc(OC)c(F)c(N2Cc3cnc(-c4cncc(CN5CCOCC5)c4)cc3C3(CC3)C2=O)c1F [Example 16, 2′-(2,6-difluoro-3,5-dimethoxyphenyl)-6′-(5-(morpholinomethyl)pyridin-3-yl)-1′H-spiro[cyclopropane-1,4′-[2,7]naphthyridin]-3′(2′H)-one]",>1,>50,>25,>10,>25,>10,>10
"COc1cc(OC)c(F)c(N2Cc3cnc(-c4cncc(C#N)c4)cc3C3(CC3)C2=O)c1F [Example 8, 5-(2′-(2,6-difluoro-3,5-dimethoxyphenyl)-3′-oxo-2′,3′-dihydro-1′H-spiro[cyclopropane-1,4′-[2,7]naphthyridine]-6′-yl)nicotinonitrile]",>5,>50,>10,>10,>50,>10,>10
"COc1cncc(-c2cc3c(cn2)CN(c2c(F)c(OC)cc(OC)c2F)C(=O)C32CC2)c1 [Example 10, 2′-(2,6-difluoro-3,5-dimethoxyphenyl)-6′-(5-methoxypyridin-3-yl)-1′H-spiro[cyclopropane-1,4′-[2,7]naphthyridin]-3′(2′H)-one]",>1,>25,>25,>10,>25,>10,>10
"COc1cc(OC)c(F)c(N2Cc3cnc(-c4cncc(Cl)c4)cc3C3(CC3)C2=O)c1F [Example 11, 6′-(5-chloropyridin-3-yl)-2′-(2,6-difluoro-3,5-dimethoxyphenyl)-1′H-spiro[cyclopropane-1,4′-[2,7]naphthyridin]-3′(2′H)-one]",>1,>25,>25,>10,>50,>20,>25
"COc1cc(OC)c(F)c(N2Cc3cnc(-c4cncc(N5CCOCC5)c4)cc3C3(CC3)C2=O)c1F [Example 6, 2′-(2,6-difluoro-3,5-dimethoxyphenyl)-6′-(5-morpholinopyridin-3-yl)-1′H-spiro[cyclopropane-1,4′-[2,7]naphthyridin]-3′(2′H)-one]",>3,>100,>100,>25,>100,>100,>50
"COc1cc(OC)c(F)c(N2Cc3cnc(-c4cc(N)cnc4C)cc3C3(CC3)C2=O)c1F [Example 7, 6′-(5-amino-2-methylpyridin-3-yl)-2′-(2,6-difluoro-3,5-dimethoxyphenyl)-1′H-spiro[cyclopropane-1,4′-[2,7]naphthyridin]-3′(2′H)-one]",>1,>50,>25,>25,>25,>10,>10
"COc1cc(OC)c(F)c(N2Cc3cnc(-c4cncc(C(=O)N5CCOCC5)c4)cc3C3(CC3)C2=O)c1F [Example 13, 2′-(2,6-difluoro-3,5-dimethoxyphenyl)-6′-(5-(morpholine-4-carbonyl)pyridin-3-yl)-1′H-spiro[cyclopropane-1,4′-[2,7]naphthyridin]-3′(2′H)-one]",>3,>50,>25,>10,>50,>20,>10
"COc1cc(OC)c(F)c(N2Cc3cnc(-c4cncc(-n5ccnc5)c4)cc3C3(CC3)C2=O)c1F [Example 12, 6′-(5-(1H-imidazol-1-yl)pyridin-3-yl)-2′-(2,6-difluoro-3,5-dimethoxyphenyl)-1′H-spiro[cyclopropane-1,4′-[2,7]naphthyridin]-3′(2′H)-one]",>3,>50,>25,>10,>50,>25,>20
"COc1cc(OC)c(F)c(N2Cc3cnc(-c4cncc(F)c4)cc3C3(CC3)C2=O)c1F [Example 5, 2′-(2,6-difluoro-3,5-dimethoxyphenyl)-6′-(5-fluoropyridin-3-yl)-1′H-spiro[cyclopropane-1,4′-[2,7]naphthyridin]-3′(2′H)-one]",>3,>10,>5,>1,>10,>5,>4
"COc1cc(OC)c(F)c(N2Cc3cnc(-c4cncc(N)c4)cc3C3(CC3)C2=O)c1F [Example 4, 6′-(5-aminopyridin-3-yl)-2′-(2,6-difluoro-3,5-dimethoxyphenyl)-1′H-spiro[cyclopropane-1,4′-[2,7]naphthyridin]-3′(2′H)-one]",>1,>25,>10,>10,>10,>10,>5
